Measurements published in ChEMBL document CHEMBL5653631, “A Potent and Selective ULK1 Inhibitor Suppresses Autophagy and Sensitizes Cancer Cells to Nutrient Stress” (iScience, 2018).

Legend:
[1] = target: Serine/threonine-protein kinase PAK 3 (Homo sapiens) (UniProt O75914); assay: Inhibition of human recombinant PAK3 at 40 nM in presence of ATP by radiometric assay relative to control
[2] = target: Glycogen synthase kinase-3 beta (Homo sapiens) (UniProt P49841); assay: Inhibition of human recombinant GSK3B at 40 nM in presence of ATP by radiometric assay relative to control
[3] = target: Transient receptor potential cation channel subfamily M member 7 (Homo sapiens) (UniProt Q96QT4); assay: Inhibition of human recombinant ChaK1 at 500 nM related to control ULK1
[4] = target: T1, Calcium/calmodulin-dependent protein kinase type IV (Homo sapiens) (UniProt Q16566); assay: Inhibition of human recombinant CaMK4 at 500 nM in presence of ATP by radiometric assay relative to control
T1 sequence (whole entry): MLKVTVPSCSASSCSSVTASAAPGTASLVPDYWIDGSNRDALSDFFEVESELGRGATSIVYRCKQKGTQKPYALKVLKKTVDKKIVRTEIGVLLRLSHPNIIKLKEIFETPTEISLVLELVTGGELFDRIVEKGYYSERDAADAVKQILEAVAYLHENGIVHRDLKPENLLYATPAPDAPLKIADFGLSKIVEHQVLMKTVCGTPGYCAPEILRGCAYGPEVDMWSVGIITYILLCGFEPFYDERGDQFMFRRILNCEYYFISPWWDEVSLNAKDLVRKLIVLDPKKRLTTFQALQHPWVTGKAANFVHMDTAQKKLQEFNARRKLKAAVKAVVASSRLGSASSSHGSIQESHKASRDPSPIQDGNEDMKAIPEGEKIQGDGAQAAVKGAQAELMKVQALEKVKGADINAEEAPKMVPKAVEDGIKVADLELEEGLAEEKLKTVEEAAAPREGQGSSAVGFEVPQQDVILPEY

[5] = target: T2, Ephrin type-A receptor 3 (Homo sapiens) (UniProt P29320); assay: Inhibition of human recombinant EphA3 at 500 nM related to control ULK1
T2 sequence (whole entry): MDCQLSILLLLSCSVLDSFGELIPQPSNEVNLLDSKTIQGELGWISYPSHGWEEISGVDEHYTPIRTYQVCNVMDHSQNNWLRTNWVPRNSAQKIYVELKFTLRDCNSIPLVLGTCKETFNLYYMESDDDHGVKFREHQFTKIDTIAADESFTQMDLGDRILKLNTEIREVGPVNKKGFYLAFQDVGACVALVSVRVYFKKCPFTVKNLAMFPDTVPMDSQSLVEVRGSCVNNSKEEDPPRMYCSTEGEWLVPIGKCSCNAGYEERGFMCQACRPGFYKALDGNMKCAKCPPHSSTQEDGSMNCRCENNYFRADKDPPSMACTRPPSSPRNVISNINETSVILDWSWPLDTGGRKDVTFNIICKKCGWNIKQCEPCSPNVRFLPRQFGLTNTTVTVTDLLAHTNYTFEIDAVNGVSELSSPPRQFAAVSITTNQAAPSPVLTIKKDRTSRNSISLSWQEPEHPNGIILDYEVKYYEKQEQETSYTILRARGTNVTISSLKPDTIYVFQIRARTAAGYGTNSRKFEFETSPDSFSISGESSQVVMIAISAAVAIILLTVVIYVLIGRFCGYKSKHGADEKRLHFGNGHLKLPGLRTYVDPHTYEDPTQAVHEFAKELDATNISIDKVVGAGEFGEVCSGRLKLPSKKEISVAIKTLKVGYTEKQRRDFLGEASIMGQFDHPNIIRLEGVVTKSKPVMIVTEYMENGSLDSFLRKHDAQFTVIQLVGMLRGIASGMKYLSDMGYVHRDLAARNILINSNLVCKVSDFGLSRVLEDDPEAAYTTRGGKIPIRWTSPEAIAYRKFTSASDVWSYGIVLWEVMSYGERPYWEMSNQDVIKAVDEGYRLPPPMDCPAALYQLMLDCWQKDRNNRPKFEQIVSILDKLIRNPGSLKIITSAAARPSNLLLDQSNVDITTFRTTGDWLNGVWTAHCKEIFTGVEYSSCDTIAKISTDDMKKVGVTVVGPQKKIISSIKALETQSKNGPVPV

[6] = target: T3, Interleukin-1 receptor-associated kinase 4 (Homo sapiens) (UniProt Q9NWZ3); assay: Inhibition of human recombinant IRAK4 at 500 nM related to control ULK1
T3 sequence (whole entry): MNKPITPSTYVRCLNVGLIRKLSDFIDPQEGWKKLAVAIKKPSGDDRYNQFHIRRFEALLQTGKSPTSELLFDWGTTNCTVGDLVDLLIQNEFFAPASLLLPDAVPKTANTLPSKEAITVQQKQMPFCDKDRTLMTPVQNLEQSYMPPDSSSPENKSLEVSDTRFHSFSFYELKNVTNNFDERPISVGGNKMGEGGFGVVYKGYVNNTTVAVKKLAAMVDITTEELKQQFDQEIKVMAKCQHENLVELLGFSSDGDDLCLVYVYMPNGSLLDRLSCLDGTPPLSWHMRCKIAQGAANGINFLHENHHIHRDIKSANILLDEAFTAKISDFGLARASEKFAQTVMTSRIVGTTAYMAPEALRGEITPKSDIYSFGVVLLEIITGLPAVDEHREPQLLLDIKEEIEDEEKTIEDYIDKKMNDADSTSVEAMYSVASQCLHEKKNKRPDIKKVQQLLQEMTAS

[7] = target: Calcium/calmodulin-dependent protein kinase type II subunit delta (Homo sapiens) (UniProt Q13557); assay: Inhibition of human recombinant CaMK2d at 500 nM in presence of ATP by radiometric assay relative to control
[8] = target: T4, Serine/threonine-protein kinase ULK3 (Homo sapiens) (UniProt Q6PHR2); assay: Inhibition of human recombinant ULK3 at 500 nM in presence of ATP by radiometric assay relative to control
T4 sequence (whole entry): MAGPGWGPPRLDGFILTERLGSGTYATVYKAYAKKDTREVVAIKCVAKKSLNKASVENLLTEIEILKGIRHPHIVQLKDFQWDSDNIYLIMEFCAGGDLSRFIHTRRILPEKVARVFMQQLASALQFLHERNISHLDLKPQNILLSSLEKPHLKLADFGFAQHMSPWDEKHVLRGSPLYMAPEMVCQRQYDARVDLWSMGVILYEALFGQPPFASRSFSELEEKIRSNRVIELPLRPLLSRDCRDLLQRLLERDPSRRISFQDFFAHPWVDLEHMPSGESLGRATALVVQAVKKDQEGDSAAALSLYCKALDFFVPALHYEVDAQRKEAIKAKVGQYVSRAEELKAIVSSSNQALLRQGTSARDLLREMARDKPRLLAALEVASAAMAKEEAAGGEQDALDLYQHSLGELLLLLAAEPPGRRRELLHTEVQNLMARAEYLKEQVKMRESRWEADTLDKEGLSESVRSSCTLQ

[9] = target: Calcium/calmodulin-dependent protein kinase type 1G (Homo sapiens) (UniProt Q96NX5); assay: Inhibition of human recombinant CaMK1g at 15 nM related to control ULK1
[10] = target: NT-3 growth factor receptor (Homo sapiens) (UniProt Q16288); assay: Inhibition of human recombinant TRKC at 15 nM in presence of ATP by radiometric assay relative to control
Sequence of NT-3 growth factor receptor (Homo sapiens) (Q16288 32-839 limits assumed): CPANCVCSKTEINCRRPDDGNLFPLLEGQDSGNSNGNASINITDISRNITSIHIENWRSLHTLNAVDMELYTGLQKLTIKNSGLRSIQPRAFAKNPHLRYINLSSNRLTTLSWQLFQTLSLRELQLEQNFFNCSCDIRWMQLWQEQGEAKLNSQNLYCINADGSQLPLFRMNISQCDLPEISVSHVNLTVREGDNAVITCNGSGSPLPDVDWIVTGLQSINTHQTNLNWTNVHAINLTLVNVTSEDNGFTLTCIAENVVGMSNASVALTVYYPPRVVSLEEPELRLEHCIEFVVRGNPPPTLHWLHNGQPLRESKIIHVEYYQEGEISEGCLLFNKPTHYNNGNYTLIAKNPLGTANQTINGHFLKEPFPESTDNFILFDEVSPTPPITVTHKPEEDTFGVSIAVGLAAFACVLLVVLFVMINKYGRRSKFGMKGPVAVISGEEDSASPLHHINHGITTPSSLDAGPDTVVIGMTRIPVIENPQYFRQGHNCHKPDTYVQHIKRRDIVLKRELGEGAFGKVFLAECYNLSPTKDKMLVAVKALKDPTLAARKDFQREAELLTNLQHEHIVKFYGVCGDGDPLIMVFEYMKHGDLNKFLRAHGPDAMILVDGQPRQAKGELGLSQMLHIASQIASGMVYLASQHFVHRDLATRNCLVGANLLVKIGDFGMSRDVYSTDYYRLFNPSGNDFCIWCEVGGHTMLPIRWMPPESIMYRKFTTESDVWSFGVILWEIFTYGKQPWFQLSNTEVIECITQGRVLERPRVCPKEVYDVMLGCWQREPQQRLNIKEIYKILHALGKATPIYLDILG

Sequence of Serine/threonine-protein kinase PAK 3 (Homo sapiens) (O75914 whole entry, looked up): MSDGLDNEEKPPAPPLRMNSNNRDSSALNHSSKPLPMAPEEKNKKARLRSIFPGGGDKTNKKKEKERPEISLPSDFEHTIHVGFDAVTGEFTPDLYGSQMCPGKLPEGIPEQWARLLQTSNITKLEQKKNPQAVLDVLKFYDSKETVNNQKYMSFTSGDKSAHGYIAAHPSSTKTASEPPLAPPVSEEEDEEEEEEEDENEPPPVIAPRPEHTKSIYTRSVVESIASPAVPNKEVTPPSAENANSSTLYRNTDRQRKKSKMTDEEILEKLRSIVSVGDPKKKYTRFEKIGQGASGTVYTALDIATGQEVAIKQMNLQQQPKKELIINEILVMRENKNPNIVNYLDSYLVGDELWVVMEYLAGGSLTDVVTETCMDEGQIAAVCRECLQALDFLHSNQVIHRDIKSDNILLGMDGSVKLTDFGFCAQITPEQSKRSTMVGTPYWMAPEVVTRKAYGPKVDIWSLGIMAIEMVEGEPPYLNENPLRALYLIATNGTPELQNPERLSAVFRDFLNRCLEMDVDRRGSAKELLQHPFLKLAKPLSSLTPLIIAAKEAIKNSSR
Sequence of Transient receptor potential cation channel subfamily M member 7 (Homo sapiens) (Q96QT4 whole entry): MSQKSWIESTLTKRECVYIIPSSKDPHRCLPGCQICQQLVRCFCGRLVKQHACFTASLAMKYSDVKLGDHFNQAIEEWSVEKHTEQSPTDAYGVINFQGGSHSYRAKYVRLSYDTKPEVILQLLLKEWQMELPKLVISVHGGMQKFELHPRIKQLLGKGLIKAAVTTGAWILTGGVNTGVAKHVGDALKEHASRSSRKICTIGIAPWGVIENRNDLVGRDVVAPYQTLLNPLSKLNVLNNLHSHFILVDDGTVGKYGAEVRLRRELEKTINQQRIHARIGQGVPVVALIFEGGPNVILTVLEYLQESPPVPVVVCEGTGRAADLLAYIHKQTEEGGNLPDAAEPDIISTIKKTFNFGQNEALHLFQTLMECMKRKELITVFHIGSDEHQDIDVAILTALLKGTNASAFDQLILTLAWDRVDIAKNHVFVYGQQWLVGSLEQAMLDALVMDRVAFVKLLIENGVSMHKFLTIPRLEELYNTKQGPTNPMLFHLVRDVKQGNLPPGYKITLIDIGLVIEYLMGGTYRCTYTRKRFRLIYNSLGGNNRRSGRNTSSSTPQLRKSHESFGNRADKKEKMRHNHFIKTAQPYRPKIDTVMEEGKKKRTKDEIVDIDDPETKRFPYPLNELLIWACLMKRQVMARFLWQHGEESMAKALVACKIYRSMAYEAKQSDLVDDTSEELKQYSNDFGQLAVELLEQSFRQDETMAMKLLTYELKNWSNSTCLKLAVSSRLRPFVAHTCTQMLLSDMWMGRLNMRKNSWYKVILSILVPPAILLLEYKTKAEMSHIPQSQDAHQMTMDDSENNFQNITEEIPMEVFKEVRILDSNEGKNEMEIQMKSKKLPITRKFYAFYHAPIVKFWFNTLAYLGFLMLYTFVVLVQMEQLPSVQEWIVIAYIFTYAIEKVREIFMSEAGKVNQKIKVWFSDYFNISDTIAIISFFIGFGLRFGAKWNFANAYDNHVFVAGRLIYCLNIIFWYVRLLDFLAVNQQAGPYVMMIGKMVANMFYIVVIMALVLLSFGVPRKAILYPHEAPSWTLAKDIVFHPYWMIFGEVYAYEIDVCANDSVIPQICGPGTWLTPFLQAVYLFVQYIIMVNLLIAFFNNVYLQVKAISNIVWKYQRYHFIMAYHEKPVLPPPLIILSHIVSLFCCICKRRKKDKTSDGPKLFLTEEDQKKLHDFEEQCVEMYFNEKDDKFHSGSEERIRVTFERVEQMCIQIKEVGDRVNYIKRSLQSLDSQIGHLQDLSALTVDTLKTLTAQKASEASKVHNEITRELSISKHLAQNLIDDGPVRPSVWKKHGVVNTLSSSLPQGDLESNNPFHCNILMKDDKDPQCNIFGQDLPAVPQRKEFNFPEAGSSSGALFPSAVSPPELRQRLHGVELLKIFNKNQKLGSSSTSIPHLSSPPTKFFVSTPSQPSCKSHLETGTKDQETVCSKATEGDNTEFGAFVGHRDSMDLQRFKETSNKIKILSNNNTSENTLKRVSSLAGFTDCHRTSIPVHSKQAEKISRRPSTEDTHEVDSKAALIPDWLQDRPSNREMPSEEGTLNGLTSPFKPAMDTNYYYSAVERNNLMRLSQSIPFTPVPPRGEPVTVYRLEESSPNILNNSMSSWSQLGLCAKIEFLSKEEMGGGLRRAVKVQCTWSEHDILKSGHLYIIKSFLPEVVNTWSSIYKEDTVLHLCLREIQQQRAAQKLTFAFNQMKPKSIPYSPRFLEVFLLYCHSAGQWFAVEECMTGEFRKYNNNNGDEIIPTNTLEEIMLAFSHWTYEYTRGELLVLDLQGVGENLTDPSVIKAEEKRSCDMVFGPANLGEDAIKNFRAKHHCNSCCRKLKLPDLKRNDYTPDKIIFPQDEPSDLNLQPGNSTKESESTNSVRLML
Sequence of Glycogen synthase kinase-3 beta (Homo sapiens) (P49841 whole entry, looked up): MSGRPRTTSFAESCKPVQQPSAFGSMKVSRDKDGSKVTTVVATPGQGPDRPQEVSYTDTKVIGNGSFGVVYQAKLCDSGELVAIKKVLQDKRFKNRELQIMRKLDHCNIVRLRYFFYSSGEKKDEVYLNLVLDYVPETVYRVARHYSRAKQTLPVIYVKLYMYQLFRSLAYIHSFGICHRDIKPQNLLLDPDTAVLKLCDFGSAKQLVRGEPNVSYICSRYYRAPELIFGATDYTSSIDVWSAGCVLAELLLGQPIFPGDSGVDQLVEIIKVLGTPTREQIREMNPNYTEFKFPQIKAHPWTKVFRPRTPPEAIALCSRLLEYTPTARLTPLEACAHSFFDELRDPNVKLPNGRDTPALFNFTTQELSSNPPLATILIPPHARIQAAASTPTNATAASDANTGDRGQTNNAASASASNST
Sequence of Calcium/calmodulin-dependent protein kinase type 1G (Homo sapiens) (Q96NX5 whole entry): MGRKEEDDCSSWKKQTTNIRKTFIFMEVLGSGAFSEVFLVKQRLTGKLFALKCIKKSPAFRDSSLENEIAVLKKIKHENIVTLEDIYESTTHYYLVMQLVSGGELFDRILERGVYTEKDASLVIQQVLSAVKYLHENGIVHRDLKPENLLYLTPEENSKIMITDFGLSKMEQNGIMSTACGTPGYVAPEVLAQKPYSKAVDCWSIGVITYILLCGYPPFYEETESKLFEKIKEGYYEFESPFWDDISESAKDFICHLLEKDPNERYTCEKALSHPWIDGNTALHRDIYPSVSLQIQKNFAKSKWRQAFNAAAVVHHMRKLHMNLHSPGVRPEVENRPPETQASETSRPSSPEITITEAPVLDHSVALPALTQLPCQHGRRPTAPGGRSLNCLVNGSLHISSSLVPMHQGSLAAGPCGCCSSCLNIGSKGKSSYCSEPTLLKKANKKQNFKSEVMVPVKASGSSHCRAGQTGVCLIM
Sequence of Calcium/calmodulin-dependent protein kinase type II subunit delta (Homo sapiens) (Q13557 whole entry): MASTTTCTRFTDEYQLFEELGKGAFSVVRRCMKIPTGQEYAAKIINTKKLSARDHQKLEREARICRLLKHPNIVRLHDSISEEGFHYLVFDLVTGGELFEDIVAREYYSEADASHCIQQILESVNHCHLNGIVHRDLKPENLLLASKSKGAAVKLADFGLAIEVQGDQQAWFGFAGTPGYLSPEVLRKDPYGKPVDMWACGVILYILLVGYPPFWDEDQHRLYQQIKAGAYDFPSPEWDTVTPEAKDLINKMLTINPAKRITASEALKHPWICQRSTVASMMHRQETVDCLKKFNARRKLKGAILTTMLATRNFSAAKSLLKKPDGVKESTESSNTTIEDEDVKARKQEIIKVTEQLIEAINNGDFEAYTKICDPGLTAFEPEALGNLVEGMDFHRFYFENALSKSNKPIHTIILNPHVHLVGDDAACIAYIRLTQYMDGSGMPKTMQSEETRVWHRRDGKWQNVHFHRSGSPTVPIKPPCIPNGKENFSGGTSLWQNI

O=C(N[C@@H](C1CC1)C(F)(F)F)c1cc(-c2cnn3cc(-c4ccc(F)cc4)cnc23)cs1
inhibition [1]: 0% | inhibition [2]: 0%

CNC(=O)c1ccccc1Oc1nc(Nc2cc(OC)c(OC)c(OC)c2)ncc1Br
fold change (FC) [3]: 0 | inhibition [4]: 0% | fold change (FC) [5]: 0.15 | fold change (FC) [6]: 0.08 | inhibition [7]: 9% | inhibition [8]: 84%

CC(C)[C@H](NC(=O)c1cc(-c2cnn3cc(-c4ccc(OCCN5CCCCC5)cc4)cnc23)cs1)C(F)(F)F
fold change (FC) [9]: 0 | inhibition [10]: 0%
